Assay results taken from US6680335B2, “Methods of modulating protein tyrosine kinase function with substituted indolinone compounds” (Sugen, Inc., priority 1998, dated 2004).

Tests used:
src protein kinase = molecular target: T1, src protein kinase (Gallus gallus, UniProt P00523); experiment: Assay measuring SRC protein kinase activity (phosphorylation of a biotinylated peptide); assay type: biochemical; settings: src from transformed yeast lysate, 5 μM ATP; for inhibition at 100 µM: compound at 100 μM; for IC50: cells without %
T1 construct: made in house; host or cells: Schizosaccharomyces pombe strain SP200, pRSP expression plasmids
Description: This assay is used to determine src protein kinase activity measuring phosphorylation of a biotinylated peptide as the readout.
a. Yeast transformed with src.
b. Cell lysates: Yeast cells expressing src are pelleted, washed once with water, re-pelleted and stored at −80° C. until use.
(§1) c. N-terminus biotinylated […] is prepared by standard procedures well known to those skilled in the art.
(§2) h. […] S. Pombe strain SP200 (h-s leul.32 ura4 ade21O) was grown as described and transformations were pRSP expression plasmids were done by the lithium acetate method (Superti-Furga, supra). Cells were grown in the presence of 1 μM thiamine to repress expression from the nmtl promoter or in the absence of thiamine to induce expression.
a. Preparation of src coated ELISA plate.
1. Coat ELISA plate with 0.5 μg/well anti-src mab in 100 μL of pH 9.6 sodium carbonate buffer at 4° C. overnight.
(§3) 2. Wash wells once with PBS.
(§4) 3. Block plate with 0.15 mL 5% milk in PBS for 30 min. at room temperature.
(§5) 4. Wash plate 5× with PBS.
5. Add 10 μg/well of src transformed yeast lysates diluted in Lysis Buffer (0.1 mL total volume per well). (Amount of lysate may vary between hatches.) Shake plate for 20 minutes at room temperature.
(§6) b. Preparation of phosphotyrosine antibody-coated ELISA plate.
(§7) 1. 4G10 plate: coat 0.5 μg/well 4G10 in 100 μL PBS overnight at 4° C. and block with 150 μL of 5% milk in PBS for 30 minutes at room temperature.
(§8) c. Kinase assay procedure.
(§9) 1. Remove unbound proteins from steps 1-7, above, and wash plates 5× with PBS.
2. Add 0.08 mL Kinase Reaction Mixture per well (containing 10 μL of 10×Kinase Buffer and 10 μM (final concentration) biotin-[…] per well diluted in water.
(§10) 3. Add 10 μL of compound diluted in water containing 10% DMSO and pre-incubate for 15 minutes at room temperature.
(§11) 4. Start kinase reaction by adding 10 μL/well of 0.05 mM ATP in water (5 μM ATP final).
(§12) 5. Shake ELISA plate for 15 min. at room temperature.
(§13) 6. Stop kinase reaction by adding 10 μL of 0.5 M EDTA per well.
(§14) 7. Transfer 90 μL supernatant to a blocked 4G10 coated ELISA plate from section B, above.
(§15) 8. Incubate for 30 min. while shaking at room temperature.
(§16) 9. Wash plate 5× with TBST.
(§17) 10. Incubate with Vectastain ELITE ABC reagent (100 μL/well) for 30 min. at room temperature.
(§18) 11. Wash the wells 5× with TBST.
(§19) 12. Develop with Turbo TMB.
(§20) The IC50 values were measured for several of the compounds of the invention.

pyk-2 protein kinase = molecular target: T2, pyk-2 protein kinase (Homo sapiens, UniProt Q14289); experiment: Assay measuring PYK-2 protein kinase activity (phosphorylation of a biotinylated peptide); assay type: biochemical; settings: pyk-2 from transformed yeast lysate, 5 μM ATP; for inhibition at 100 µM: compound at 100 μM; for IC50: cells without %
T2 construct: made in house; host or cells: Schizosaccharomyces pombe strain SP200, pRSP expression plasmids
T2 sequence (Q14289 whole entry): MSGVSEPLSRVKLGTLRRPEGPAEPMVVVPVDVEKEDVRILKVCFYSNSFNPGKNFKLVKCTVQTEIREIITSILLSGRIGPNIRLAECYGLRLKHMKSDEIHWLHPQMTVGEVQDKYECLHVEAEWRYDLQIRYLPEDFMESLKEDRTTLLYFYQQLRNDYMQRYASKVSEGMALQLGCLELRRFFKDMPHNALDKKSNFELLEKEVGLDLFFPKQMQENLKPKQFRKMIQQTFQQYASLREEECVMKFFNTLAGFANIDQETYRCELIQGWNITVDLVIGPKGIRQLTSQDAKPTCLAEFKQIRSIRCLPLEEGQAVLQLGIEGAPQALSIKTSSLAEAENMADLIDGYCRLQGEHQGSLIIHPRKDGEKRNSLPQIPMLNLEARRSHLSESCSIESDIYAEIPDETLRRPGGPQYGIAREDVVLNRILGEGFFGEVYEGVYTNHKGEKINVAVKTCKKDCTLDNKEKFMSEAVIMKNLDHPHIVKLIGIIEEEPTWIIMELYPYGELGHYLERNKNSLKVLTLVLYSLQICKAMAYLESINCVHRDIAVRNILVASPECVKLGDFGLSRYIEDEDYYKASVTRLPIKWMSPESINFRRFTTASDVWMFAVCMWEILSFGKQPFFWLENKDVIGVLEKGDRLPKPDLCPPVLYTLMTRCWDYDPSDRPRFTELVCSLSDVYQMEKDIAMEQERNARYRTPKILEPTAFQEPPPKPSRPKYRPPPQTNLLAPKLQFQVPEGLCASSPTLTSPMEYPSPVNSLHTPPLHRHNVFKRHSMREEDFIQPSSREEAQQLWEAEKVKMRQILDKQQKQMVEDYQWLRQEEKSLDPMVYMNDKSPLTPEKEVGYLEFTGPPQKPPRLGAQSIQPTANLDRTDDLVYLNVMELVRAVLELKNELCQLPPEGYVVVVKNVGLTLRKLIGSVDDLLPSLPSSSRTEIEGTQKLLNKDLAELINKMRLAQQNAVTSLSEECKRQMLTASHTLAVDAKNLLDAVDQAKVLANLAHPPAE
Description: This assay is used to determine pyk-2 protein kinase activity measuring phosphorylation of a biotinylated peptide as the readout.
a. Yeast transformed with pyk-2.
b. Cell lysates: Yeast cells expressing pyk-2 are pelleted, washed once with water, re-pelleted and stored at −80° C. until use.
as §1, §2
a. Preparation of pyk-2 coated ELISA plate.
1. Coat ELISA plate with 0.5 μg/well anti-pyk-2 mab in 100 μL of pH 9.6 sodium carbonate buffer at 4° C. overnight.
as §3, §4, §5
5. Add 10 μg/well of pyk-2 transformed yeast lysates diluted in Lysis Buffer (0.1 mL total volume per well). (Amount of lysate may vary between hatches.) Shake plate for 20 minutes at room temperature.
as §6, §7, §8, §9
2. Add 0.08 mL Kinase Reaction Mixture per well (containing […] of 10×Kinase Buffer and 10 pM (final concentration) biotin-[…] per well diluted in water.
as §10, §11, §12, §13, §14, §15, §16, §17, §18, §19, §20

| SMILES | inhibition at 100 µM (src protein kinase) | inhibition at 100 µM (pyk-2 protein kinase) | IC50 (pyk-2 protein kinase) | IC50 (src protein kinase) |
| --- | --- | --- | --- | --- |
| Cc1ccc2c(c1)/C(=C/c1[nH]c3ccccc3c1C)C(=O)N2 [IN-001, 5-Methyl-3-(3-methyl-1H-indol-2-ylmethylene)-1,3-dihydro-indol-2-one] | -62% | -16% |  |  |
| Cc1c(/C=C2\C(=O)Nc3ccc(S(N)(=O)=O)cc32)[nH]c2ccccc12 [IN-002, 3-(3-Methyl-1H-indol-2-ylmethylene)-2-oxo-2,3-dihydro-1H-indole-5-sulfonic acid amide] | -3.5% | 46.7% |  |  |
| Cc1c(/C=C2\C(=O)Nc3ccc(C(=O)O)cc32)[nH]c2ccccc12 [IN-005, 3-(3-Methyl-1H-indol-2-ylmethylene)-2-oxo-2,3-dihydro-1H-indole-5-carboxylic acid] |  |  | 220 nM |  |
| CC(=O)c1ccc2c(c1)C(=Cc1[nH]c3ccccc3c1C)C(=O)N2 [IN-006, 5-Acetyl-3-(3-methyl-1H-indol-2-ylmethylene)-1,3-dihydro-indol-2-one] |  | 27% |  | > 100 µM |
| CC(=O)c1ccc2c(c1)C(=Cc1cc3ccccc3[nH]1)C(=O)N2 [IN-007, 5-Acetyl-3-(1H-indol-2-ylmethylene)-1,3-dihydro-indol-2-one] | 12.4% | 17.9% |  |  |
| NS(=O)(=O)c1ccc2c(c1)/C(=C/c1cc3ccccc3[nH]1)C(=O)N2 [IN-008, 3-(1H-Indol-2-ylmethylene)-2-oxo-2,3-dihydro-1H-indole-5-sulfonic acid amide] | -11% |  | 9600 nM |  |
| Nc1ccc2c(c1)/C(=C/c1cc3ccccc3[nH]1)C(=O)N2 [IN-009, 5-Amino-3-(1H-indol-2-ylmethylene)-1,3-dihydro-indol-2-one] |  |  | 680 nM | 9 µM |
| O=C1Nc2ccc(C(=O)O)cc2/C1=C/c1cc2ccccc2[nH]1 [IN-010, 3-(1H-Indol-2-ylmethylene)-2-oxo-2,3-dihydro-1H-indole-5-carboxylic acid] | 36.4% |  | 3400 nM |  |
| O=C1Nc2cc(Cl)ccc2/C1=C/c1cc2ccccc2[nH]1 [IN-011, 6-Chloro-3-(1H-indol-2-ylmethylene)-1,3-dihydro-indol-2-one] | -38.5% | 7.4% |  |  |
| O=C1Nc2ccccc2/C1=C/c1cc2ccccc2[nH]1 [IN-012, 3-(1H-Indol-2-ylmethylene)-1,3-dihydro-indol-2-one] | -12% | 5.1% |  |  |
| O=C1Nc2ccc(Cl)cc2/C1=C/c1cc2ccccc2[nH]1 [IN-013, 5-chloro-3-(1H-indol-2-ylmethylene)-1,3-dihydro-indol-2-one] | -0.6% | -12% |  |  |
| Cc1c(/C=C2\C(=O)Nc3ccccc32)[nH]c2ccccc12 [IN-016, 3-(3-Methyl-1H-indol-2-ylmethylene)-1,3-dihydro-indol-2-one] | 20.2% | -12.5% |  |  |
| Cc1c(/C=C2\C(=O)Nc3ccc(Cl)cc32)[nH]c2ccccc12 [IN-017, 5-Chloro-3-(3-methyl-1H-indol-2-ylmethylene)-1,3-dihydro-indol-2-one] | 21.4% | -12% |  |  |
| Cc1c(/C=C2\C(=O)Nc3ccc(Br)cc32)[nH]c2ccccc12 [IN-018, 5-Bromo-3-(3-methyl-1H-indol-2-ylmethylene)-1,3-dihydro-indol-2-one] | 19.5% | 62% |  |  |
| Cc1cccc2c1/C(=C/c1[nH]c3ccccc3c1C)C(=O)N2 [IN-019, 4-Methyl-3-(3-methyl-1H-indol-2-ylmethylene)-1,3-dihydro-indol-2-one] | -6.5% | -36% |  |  |
